Measured values: publication PMC8282797, “Strictly regulated agonist-dependent activation of AMPA-R is the key characteristic of TAK-653 for robust synaptic responses and cognitive improvement” (Scientific Reports, 2021)

Key:
AMPA-R = test: Ca2+ influx assay using rat primary hippocampal neurons; format: cell-based
Procedure: Ca^2+ influx assay using primary neurons was performed as previously described. After 5 days of culture, the cells plated on poly-D-lysine coated 96-well plates (Corning Incorporated) at 2 × 10^4 or 5 × 10^4 cells/well were used for experiments with PF-04958242 or TAK-653, respectively. Fluorescent calcium indicator dye solution (Calcium4 assay Kit, Dojindo, Kumamoto, Japan) in Ca^2+ reaction buffer (DMEM, HEPES and BSA) containing Probenecid (Dojindo) was added and incubated for 60 min in 5% CO2 at 37 °C. After washing once, the relative increases in intracellular Ca^2+ levels stimulated by compounds in the presence and absence of AMPA were monitored. Details are described in the Supplementary Information.
Primary cultures of hippocampal neuronal cells were prepared from fetal Sprague-Dawley rats at 19 days of gestation. Rat embryos were decapitated and their whole brains were isolated. Hippocampi were dissected in ice-cold Hanks' Balanced Salt Solutions (HBSS) under a microscope and then dispersed into cells using a neural cell dispersion kit (Sumitomo Bakelite Co., Ltd., Tokyo, Japan). The dissociated cells were suspended in Neurobasal medium containing B27 supplement (Thermo Fisher Scientific Inc.), 2 mM L-glutamine (Lonza, Basel, Switzerland), 100 U/mL penicillin (Lonza), 100 μg/mL streptomycin (Lonza) and 20 μg/mL gentamicin sulfate (Lonza). The cells were plated on poly-D-lysine coated 96-well plates (Corning Incorporated) for Ca^2+ influx assay or on poly-L-lysine coated 96-well plates (Sumitomo Bakelite) for measurement of BDNF protein levels and cultured in a humidified CO2 incubator with 5% CO2 at 37°C.
After 5 days of culture, the cells at 2×10^4 or 5×10^4 cells/well were used for experiments with PF-04958242 or TAK-653, respectively. For TAK-653, after removal of culture medium, 75 µL of fluorescent calcium indicator dye solution (Calcium4 assay Kit, Dojindo, Kumamoto, Japan) in Ca^2+ reaction buffer (DMEM, 10 mM HEPES and 0.1% BSA) containing 1.25 mM Probenecid (Dojindo) was added and incubated for 60 min in 5% CO2 at 37°C and washed once using 75 µL of fluorescent calcium indicator dye solution. After addition of 75 µL of fluorescent calcium indicator dye solution to each well again, the relative increases in intracellular Ca^2+ levels by compounds in the presence and absence of 5 μM AMPA were monitored for 8.5 min by fluorometric imaging plate reader. Activity of the compound was defined as fluorescence intensity integrated over the entire period of measurement. Intensity of 0% was defined as activity in the presence of only DMSO, while 100% was defined as activity in the presence of 5 μM AMPA and 10 μM HBT1. For PF-04958242, after removal of culture medium, 90 µL of fluorescent calcium indicator dye solution (Calcium4 assay Kit, Dojindo) in Ca^2+ reaction buffer (DMEM, 20 mM HEPES and 0.1% BSA) containing 2.5 mM Probenecid (Dojindo) was added and incubated for 60 min in 5% CO2 at 37°C. After addition of 90 µL of fluorescent calcium indicator dye solution to each well again, the relative increases in intracellular Ca^2+ levels by compounds in the presence and absence of 1 μM AMPA were monitored for 2 min in a microplate reader (CellLux, PerkinElmer, Waltham, MA, USA). Activity of the compound was defined as fluorescence intensity integrated over the entire period of measurement. 100% was defined as activity in the presence of 1 μM AMPA and 10 μM HBT1, while intensity of 0% was defined as activity in the presence of 1 μM AMPA or only DMSO for potentiator effect or agonistic effect, respectively. EC50 values were calculated by logistic regression analysis.

[1] = tested on: MK-801-induced working memory deficit in rats; test: Radial arm maze (RAM) test, MK-801-induced working memory deficit; format: in vivo, rat; conditions: given 0.5 h before MK-801 0.08 mg/kg, s.c.
Procedure: RAM tests were performed using 9-week-old male Long-Evans rats as previously described with a minor modification. Each arm was 50 cm long, 10 cm wide and 40 cm high, and the maze was elevated 50 cm above the floor. Long-Evans rats were food-restricted to 85% of free-feeding body weight throughout the experimental period. Rats were well trained to collect pellets placed on the edge of each arm. The learning criterion for the testing session was defined as 2 errors or fewer for 2 consecutive days. In the testing session, each rat was placed on the maze facing the fixed arm at the start of the trial. The entry of rats into each arm was recorded in sequence until all pellets in the 8 arms were consumed, or 5 min had elapsed. […] Thirty min after dosing of vehicle or MK-801, rats were placed on the maze. Details are described in the Supplementary Information.
The experiment was performed using 9-week-old male Long-Evans rats as described previously (Zajaczkowski et al., 1996) with a minor modification. Each arm was 50 cm long, 10 cm wide and 40 cm high, and the maze was elevated 50 cm above the floor. After being fasted for 24 h, male Long-Evans rats were food-restricted to 85% of free-feeding body weight on the first day of exposure to the maze and throughout the experimental period. The experiment consists of two sessions, training and testing session. In the training session, rats were habituated to the maze and then trained. Reinforcement consisted of 3 food pellets (45 mg each) in the food cup was used. On the first day of habituation to the maze, reinforcements were placed near the entrance and at the mid-point of each arm. Three rats were placed on the maze at one time and allowed to explore and consume the pellets for 8 min. On the second day of habituation, each rat was placed on the maze and allowed 5 min to consume the pellets placed at the mid-point and in the food cup at the end of each arm. From the third day, reinforcement was placed in the food cup at the end of each arm. Rats were well trained to collect pellets placed on the edge of each arm. The learning criterion for the testing session was defined as 2 errors or less for two consecutive days. In the previous day of the testing session, baseline level of performance was qualified to confirm that rats completed collecting all pellets placed in the 8 arms with two errors or less. In the testing session, each rat was placed on the maze facing away from the experimenter and facing the fixed arm at the start of the trial. The entry of rats into each arm was recorded in sequence. Rats were allowed to explore until all pellets in the 8 arms were consumed, or 5 min had elapsed. Entry into an arm previously chosen was counted as an error. […] […] Thirty min after dosing of vehicle or MK-801, rats were placed on the maze. Data were indicated as the mean ± SEM in the testing session.

naïve rats = test: Novel object recognition (NOR) test; format: in vivo, rat; conditions: p.o., rats
Procedure: NOR tests were performed using male Long-Evans rats at 6 weeks old as previously described, with some modifications. On day 1, rats were allowed to habituate to the empty test box (a gray-colored polyvinyl chloride box (40 × 40 × 50 cm)) for 10 min individually. Testing comprised two 3-min trials called the acquisition trial and the retention trial that were separated by 48 h inter-trial intervals (ITIs). On day 2, in the acquisition trial, rats were allowed to explore two identical objects (A1 and A2) for 3 min. On day 4, in the retention trial, rats were again allowed to explore a familiar object (A3) and a novel object (B) for 3 min. The object exploration was defined as rats' licking, sniffing or touching the object with forelimbs while sniffing. TAK-653 or AMPA was orally or intraperitoneally, respectively, 2 h or 0.5 h prior to the acquisition and the retention trials. The NDI was calculated using the following equation: novel object interaction/total interaction × 100 (%).

CC(C)S(=O)(=O)N[C@H]1COC[C@H]1Oc1ccc(-c2ccc(C#N)s2)cc1 [PF-04958242, N-{(3S,4S)-4-[4-(5-cyano-2-thienyl)phenoxy]tetrahydrofuran-3-yl}propane-2-sulfonamide]
Agonistic effect: Ca2+ increase in the absence of AMPA (AMPA-R): potently produced a Ca^2+ increase in the absence of AMPA | Working memory in the RAM test [1]: did not improve | Dose improving visual learning and memory in NOR test (naïve rats): ≥ 0.1 mg/kg
